The structures appear in SMILES notation.

This series is described as follows: gradient 5% acetonitrile 3 min, to 50% in 2 min, to 85% in 15 min, held 3 min, 100 µL/min. As to conditions: column: Zorbax Extend-C18 2.1 x 50 mm; eluents: water / acetonitrile, 0.1% formic acid. The method in brief:
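Retention time was recorded from adduct peaks, which were picked computationally and each inspected manually. Pure standards ran in mixtures of ~100 molecules on HPLC coupled to a quadrupole time-of-flight mass spectrometer, in positive and negative ionization mode, through a Zorbax Extend-C18 column (2.1 × 50 mm, 1.8 μm) at 100 μL/min. Eluents were water and acetonitrile, each with 0.1% formic acid.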
Compound `COc1cccc(CCC(=O)N2C[C@@H]3C[C@H](NS(C)(=O)=O)[C@H]2C3)c1` had an RP-LC retention time of 566 s.

In turn, `CC1(C)Cc2cccc(OCC(=O)NCC3CCN(S(C)(=O)=O)CC3)c2O1` returned an RP-LC retention time of 715 s.

In turn, `CC(=O)c1ccc(NC(=O)C2Oc3ccccc3NC2=O)cc1` (centres undefined) gave an RP-LC retention time of 683 s.

`CCn1nc(N2CCCC(NS(=O)(=O)c3cccc4cccnc34)C2)ccc1=O` (centres undefined) came in with an RP-LC retention time of 736 s.

As to `CCOc1nc2ccccc2nc1N1CCCC(C(=O)Nc2ccc(F)cc2F)C1` (centres undefined), the RP-LC retention time came out at 1220 s.

Take `COC(=O)c1c(C)[nH]c(C(=O)N2CCCC(C(=O)NCCN(C)C3CCCCC3)C2)c1C` (centres undefined): the RP-LC retention time was found to be 626 s.

The compound `CSc1cccc(NC(=O)N2CCC(C)(C(=O)NCc3ccc4c(c3)OCO4)CC2)c1` displayed an RP-LC retention time of 837 s.

The compound `O=C(NCc1ccco1)C1CCN(c2ccc3nnc(-c4ccccc4F)n3n2)CC1` showed an RP-LC retention time of 708 s.

`Cc1cccnc1NC(=O)C1CCN(S(=O)(=O)c2cc(C(=O)N3CCOCC3)cs2)CC1` gave an RP-LC retention time of 606 s.

In turn, `CCN1c2ccc(C)cc2C(=O)NC12CCN(C(=O)c1ccc3c(c1)OCO3)CC2` had an RP-LC retention time of 788 s.

In turn, `CC1(C(=O)NCc2ccccc2)CCCN(C(=O)Nc2ccc(F)cc2)C1` (centres undefined) showed an RP-LC retention time of 588 s.

For the compound `O=c1ccn(-c2ccc(Cl)cc2)nc1-c1nc(-c2ccccc2Br)no1`, the RP-LC retention time turned out to be 1000 s.

Consider `Cc1cccc(-c2noc(-c3ccc(N4CCN(C5CCCCC5)CC4)nc3)n2)c1`, for which the RP-LC retention time is 831 s.

With `COc1ccc(C(=O)N2CCc3cc(-c4csc(C5CC5)n4)ccc32)cn1`, the RP-LC retention time is 1070 s.

The compound `c1ccc(COCCc2noc(C3CCCN3)n2)cc1` (centres undefined) displayed an RP-LC retention time of 614 s.

On to `CCOC(=O)c1c(C)[nH]c(C(=O)N2CCCC(C(=O)NC3CCCCC3)C2)c1C` (centres undefined), for which the RP-LC retention time was 838 s.

Regarding `Cc1nnc2cc(N3CCN(Cc4cn[nH]c4-c4ccccc4)CC3)cnn12`, the RP-LC retention time stood at 556 s.

`O=C(Nc1ccccc1Cl)N1CCC(N2CC(F)(F)C[C@H]2COCC2CC2)CC1` returned an RP-LC retention time of 720 s.

As for `CN(CCNC(=O)C1CCCN(c2cnc3nccnc3c2)C1)C1CCCCC1` (centres undefined), the RP-LC retention time worked out at 577 s.

As for `Cc1ccc(F)cc1NC(=O)Cn1cnc2nc(N3CCC(C(=O)NC4CC4)CC3)sc2c1=O`, the RP-LC retention time was found to be 674 s.

On to `Cc1c(-c2ccccc2)n(O)[n+]([O-])c1-c1ccccc1`, for which the RP-LC retention time came out at 1020 s.

On to `Cc1cc(S(=O)(=O)N2CC(Cc3nncn3C3CCCC3)C2)ccc1F`, for which the RP-LC retention time was 747 s.

Consider `Cc1ccc(NS(=O)(=O)c2c(C)c(-c3nnc(C4CCC4)o3)n(C)c2C)cc1`, for which the RP-LC retention time came to 918 s.

Regarding `CCNC(=O)c1cc(=O)[nH]c2c(C)cccc12`, the RP-LC retention time turned out to be 793 s.

`COCCCN1CCC(NC(=O)c2cc(Cl)c(N)c3c2OCC3)CC1` registered an RP-LC retention time of 641 s.

Take `COCCN1C(=O)CCc2cc(NS(=O)(=O)c3cccs3)ccc21`: the RP-LC retention time was 706 s.

Regarding `Cn1cnnc1SCCNC(=O)CCc1cccc(Oc2ccc(F)cc2)c1`, the RP-LC retention time turned out to be 697 s.

Turning to `O=C(NC1CCN(c2ccc(F)cc2)C1=O)c1ccc2c(c1)OCO2` (centres undefined), the RP-LC retention time was 764 s.

In turn, `COCCN1C(=O)Cc2ccccc2C1C(=O)NCc1ccc(Cl)cc1` (centres undefined) had an RP-LC retention time of 898 s.

The compound `Cc1ccc(N2C=NS(=O)(=O)c3cccnc32)cc1F` registered an RP-LC retention time of 815 s.

Turning to `CCc1ccc(C2=Nc3cccnc3N(CC(=O)Nc3ccc(C(C)=O)cc3)C(=O)C2)cc1`, the RP-LC retention time was determined as 972 s.

With `O=C(C1CC(=O)N(c2n[nH]c3cccc(F)c23)C1)N1CCN(Cc2ccccc2)CC1` (centres undefined), the RP-LC retention time came to 598 s.

For `Cc1ccc(S(=O)(=O)Nc2cc(-c3cn4ccc(C)cc4n3)ccc2C)cc1`, the RP-LC retention time turned out to be 696 s.

With `CCOC(=O)c1c(S(=O)(=O)N2CCC(C(=O)Nc3ccc(Cl)cc3)CC2)c(C)n(CC)c1C`, the RP-LC retention time came out at 957 s.

`O=C(Nc1nc(-c2ccccc2)cs1)c1cncc(Br)c1` displayed an RP-LC retention time of 998 s.

The compound `CC1CCN(c2cc(-c3noc(C(=O)NC4CCCCCC4)n3)ccn2)CC1` displayed an RP-LC retention time of 1010 s.

On to `O=C(NCc1ccco1)N1CCN(c2nc3cccnc3n(Cc3ccccc3)c2=O)CC1`, for which the RP-LC retention time was determined as 935 s.

The compound `COc1ccc(/C=C/c2nc(-c3cccc(-c4ccnn4C)c3)no2)cc1OC` returned an RP-LC retention time of 1050 s.

Compound `COc1ccc(-c2noc(-c3ncn4c3COC(c3ccc(F)cc3)C4)n2)cc1OC` (centres undefined) had an RP-LC retention time of 958 s.

Turning to `Cc1cc(Cl)ccc1OCC(=O)Nc1nc(-c2cccc3ccccc23)cs1`, the RP-LC retention time came to 1310 s.

`CNC(=O)[C@H]1O[C@@H](n2cnc3c(N)ncnc32)C(O)[C@H]1O` (some centres undefined) yielded an RP-LC retention time of 621 s.

On to `COc1ccccc1N1CCN(CCN(C(=O)c2ccc(F)cc2)c2ccccn2)CC1`, for which the RP-LC retention time came to 792 s.

Compound `CCOC(=O)c1cc(C)nc2c1c(=O)n(Cc1cccc(F)c1)c(=O)n2C` displayed an RP-LC retention time of 1010 s.

In the case of `CCNC(=O)c1c(C)c(-c2ccccc2)n(C)c1C`, the RP-LC retention time was determined as 1010 s.

As to `O=C(NCCc1cnc[nH]1)c1nc(Nc2ccc(F)cc2)c2ccccc2n1`, the RP-LC retention time stood at 589 s.

As to `O=S(=O)(Cc1ccccc1)N1CCC(Cc2nc(-c3cccnc3)n[nH]2)C1` (centres undefined), the RP-LC retention time came to 628 s.

In turn, `O=C(Nc1ccc(F)cc1Cl)C1CCN(C(=O)c2cccn2-c2cccnc2)CC1` showed an RP-LC retention time of 727 s.

As for `Cc1ccc(CNC(=O)Cn2cccc2-c2nnc(C3CCC3)o2)cc1`, the RP-LC retention time stood at 904 s.

Compound `O=C(Cn1cccc1-c1nc(-c2ccccc2)cs1)NCCCN1CCCC1` showed an RP-LC retention time of 601 s.

Take `O=C(Cc1cccs1)NC1CCCN(c2cc(-c3ccc(F)cc3)[nH]n2)C1` (centres undefined): the RP-LC retention time was 784 s.

`CCc1noc(-c2ccc(-n3cnc(C(=O)N4CCOCC4)c3)nc2)n1` returned an RP-LC retention time of 691 s.

In turn, `CCc1nc2cc(N3CCC(C(=O)NCc4ccc(F)cc4F)CC3)cnc2nc1CC` showed an RP-LC retention time of 852 s.

As for `CN(Cc1ccccc1)C(=O)c1cccc(NC(=O)[C@H]2[C@@H]3C[C@@H]4[C@H]2C(=O)O[C@@H]4C3)c1`, the RP-LC retention time turned out to be 766 s.

`Cc1ccc(-n2c(=O)n(C)c(=O)c3cc(C(=O)Nc4ccc5c(c4)OCCO5)cnc32)cc1`: the RP-LC retention time turned out to be 892 s.

`CCn1nc(CNC(=O)C(C)Oc2ccccc2OC)c2ccccc21` (centres undefined) registered an RP-LC retention time of 810 s.

For `CCN1c2ccccc2C(=O)NC12CCN(C(=O)Nc1ccc3c(c1)OCCO3)CC2`, the RP-LC retention time was determined as 737 s.

The compound `CCOc1ccc(NC(=O)N2CCC(c3nc(C(=O)N4CCCC4)c(C)o3)CC2)cc1` showed an RP-LC retention time of 764 s.

Consider `COc1cc2c(cc1OC)C(C1(O)CCCCC1)NCC2` (centres undefined), for which the RP-LC retention time was found to be 660 s.

The compound `Cc1ccc(S(=O)(=O)N2CCOCC2)cc1-c1nnc(-c2ccccc2)o1` displayed an RP-LC retention time of 919 s.

Regarding `O=C(CSc1nnc2c3sc(N4CCCC4)nc3ncn12)Nc1ccc(F)cc1Cl`, the RP-LC retention time was 869 s.

For the compound `CNC(=O)c1cnn2c3c(cnc12)CCCCCC3`, the RP-LC retention time was determined as 831 s.

In the case of `CN1C(=O)c2cccc(NC(=O)C3COc4ccccc4O3)c2C1=O` (centres undefined), the RP-LC retention time was 913 s.

For `CCN(CC)c1ncc2c(n1)CCC(C(=O)Nc1ccc(OC)cc1C)C2` (centres undefined), the RP-LC retention time stood at 674 s.

As to `Cc1nn(C)cc1CN(C)C(=O)CC(c1ccccc1)c1ccccc1`, the RP-LC retention time came out at 765 s.

In the case of `Cc1cn(C)nc1C(=O)Nc1nc2ccc(S(C)(=O)=O)cc2s1`, the RP-LC retention time was found to be 699 s.

For the compound `CCCNC(=O)C1CCCN(c2nc3ncn(CC(=O)NCc4ccc(F)cc4)c(=O)c3s2)C1` (centres undefined), the RP-LC retention time turned out to be 695 s.

As for `O=c1c2sccc2n(Cc2nc(-c3ccc(F)c(Cl)c3)no2)c(=O)n1Cc1ccccc1`, the RP-LC retention time worked out at 1210 s.

The compound `O=C(NCCOCCOCCNC(=O)Nc1ccccc1)Nc1ccccc1` returned an RP-LC retention time of 679 s.

In turn, `OCCn1cc(-c2cnc3nnn(Cc4ccc5ncccc5c4)c3n2)cn1` gave an RP-LC retention time of 620 s.

On to `CCOc1ccc(CN(CC)Cc2cc(=O)n3cc(Cl)ccc3n2)cc1`, for which the RP-LC retention time was 654 s.

As to `CCCn1cc(CCNC(=O)C2CCCCC2)c2cccnc21`, the RP-LC retention time worked out at 772 s.

`COc1ccc(-c2nc(NC(=O)c3cccnc3)sc2C)cc1` yielded an RP-LC retention time of 800 s.

`CCCCOc1ccc(C(=O)Nc2cc(C)no2)cc1` registered an RP-LC retention time of 908 s.

The compound `COc1ccccc1-n1ncc2c(C(C)C)nnc(SCC(=O)NCc3ccco3)c21` registered an RP-LC retention time of 729 s.

Compound `CC(C)Cn1c(=O)c(-c2ccc(C(=O)N3CCC4(CC3)OCCO4)cc2)nc2ccccc21` gave an RP-LC retention time of 987 s.

With `O=C(Nc1ccc2c(c1)OCCO2)C1CCN(C(=O)c2cc(-c3cccnc3)n[nH]2)CC1`, the RP-LC retention time was 655 s.

Turning to `CCOc1ccc(S(=O)(=O)N2CCC(C(=O)Nc3ccc(OC)cc3OC)CC2)cc1C`, the RP-LC retention time came out at 1010 s.

In turn, `CCN1c2cc(C)ccc2-n2cccc2C12CCN(C(=O)NCCCOC)CC2` yielded an RP-LC retention time of 931 s.

In the case of `Cn1nccc1C(=O)Nc1ccsc1-c1nc(-c2ccccc2)no1`, the RP-LC retention time is 1280 s.

(Values after the METLIN SMRT retention time set (Domingo-Almenara et al. 2019).)
